Reference: patent US20110014243A1, “PHARMACEUTICAL COMPOSITIONS” (priority 2007, published 2011)

Experiment: Stability of milled and unmilled Compound 1A in combination with calcium carbonate, HPLC
Assay type: physicochemical
Details: mixed with calcium carbonate, open vials at 50° C. and 75% relative humidity
Description: Samples containing 1092 mg of calcium carbonate and […] Compound 1A (either milled or unmilled) were prepared and weighed into small amber glass bottles. Samples were stored in open vials at 50° C. and 75% relative humidity. The samples were then removed after two or four weeks and stored at room temperature for up to four days prior to being analysed and were stored in open vials at 50° C. and 75% RH. The blends of Compound 1A and calcium carbonate were transferred to a glass volumetric flask and diluted to a volume of 10 ml or 100 ml with a 0.05% trifluoroacetic acid (TFA) solution in 50/50 acetonitrile/water to provide a 1 mg/ml solution of Compound 1A. The solution was stirred using a magnetic stirrer for 20 minutes then left for 5 minutes before 1 ml aliquots were taken using a plastic syringe. The aliquots were filtered through a 0.45 μm syringe filter into amber glass vials for HPLC analysis.

Measured: area % of Compound 2A compared to Compound 1A

CC(C)c1cc(Oc2c(Br)cc(NC(=O)CC(=O)O)cc2Br)ccc1O [Compound 1A, 3-[[3,5-Dibromo-4-[4-hydroxy-3-(1-methylethyl)-phenoxy]-phenyl]-amino]-3-oxopropanoic acid]
0.2 area %: milled, 2 weeks | milled, 4 weeks | unmilled, 2 weeks | unmilled, 4 weeks
